These results are taken from ChEMBL document CHEMBL1157662, “Antimalarial and antileishmanial activities of histone deacetylase inhibitors with triazole-linked cap group” (Bioorg Med Chem, 2010).

SMILES strings stand for the structures. Values after ≈ are worked out from the molar mass of the structure shown. Some results are limits rather than exact numbers.

Series [1] has as its system Plasmodium falciparum. Description: microbe, parasite or virus in culture. It is filed as functional, organism-based, W2, Vero. Particulars: Plasmodium falciparum, W2, Vero, 72 h; read-out: IC50.
Description: Antimalarial activity against chloroquine-resistant Plasmodium falciparum W2 infected in African green monkey (Cercopithecus aethiops) Vero cells assessed as parasite LDH activity after 72 hrs by Malstat reagent method
Series [2] in a line: Selectivity index, ratio of IC50 for african green monkey (Cercopithecus aethiops) Vero cells to IC50 for chloroquine-resistant Plasmodium falciparum W2.
The nature of series [3]: Selectivity index, ratio of IC50 for african green monkey (Cercopithecus aethiops) Vero cells to IC50 for chloroquine-sensitive Plasmodium falciparum D6.
The test system of series [4] is Vero. Description: Cytotoxicity against african green monkey Vero cells after 1 to 2 days by neutral red assay. It is filed as ADME, cell-based, Chlorocebus sabaeus.
Series [5] concerns Leishmania donovani. Kind of series: Antileishmanial activity against Leishmania donovani promastigotes after 72 hrs by alamar blue assay. The format is functional, organism-based. Particulars: Leishmania donovani, 72 h; for IC50: read-out: IC50. A general note: Alamar Blue is a resazurin reagent that responds to reducing activity.
In series [6] the test system is Plasmodium falciparum. Description: microbe, parasite or virus in culture. As to conditions: D6, Vero, 72 h.
Description: Antimalarial activity against chloroquine-sensitive Plasmodium falciparum D6 infected in African green monkey (Cercopithecus aethiops) Vero cells assessed as parasite LDH activity after 72 hrs by Malstat reagent method
Series [7] has as its target Histone deacetylase. Kind of series: Inhibition of HDAC in human HeLa cell nuclear extracts after 15 mins by fluorescence assay. The format is cell-based.
Setting [8] is: Chlorocebus sabaeus, Vero, read-out: IC50.

For `O=C(CCCCCn1cc(-c2cccnc2)nn1)NO`, the IC50 in series [1] is 0.205 µg/mL (≈ 0.745 µM); in series [4] (vero), “Non-toxic”; in series [5], 11.4 µg/mL (≈ 41.6 µM); in series [6], 0.175 µg/mL (≈ 0.636 µM). Also, the selectivity ratio was over 23.2 in series [2] and over 27.2 in series [3]. Further, the concentration for an effect of 90% (IC90) in series [5] was over 40 µg/mL.

As for `O=C(CCCCCn1cc(-c2ccccn2)nn1)NO`, the IC50 was 0.625 µg/mL (≈ 2.27 µM) in series [1], 2.9 µg/mL (≈ 10.5 µM) in series [4] (setting [8]), 20.5 µg/mL (≈ 74.5 µM) in series [5] and 0.985 µg/mL (≈ 3.58 µM) in series [6]. Also, the selectivity ratio in series [2] amounted to 4.6; in series [3] it was 2.9. The IC90 in series [5] was over 40 µg/mL.

With `Cc1ccccc1-c1cn(CCCCCC(=O)NO)nn1`, the IC50 is 1.95 µg/mL (≈ 6.76 µM) in series [1], 3.3 µg/mL (≈ 11.4 µM) in series [4] (setting [8]), 23 µg/mL (≈ 79.8 µM) in series [5] and 1.25 µg/mL (≈ 4.33 µM) in series [6]. Besides, the selectivity ratio in series [2] was 1.7; in series [3], 2.6. The IC90 in series [5] was over 40 µg/mL.

For `COc1ccc(-c2cn(CCCCCC(=O)NO)nn2)cc1`, the IC50 in series [1] worked out at 0.09 µg/mL (≈ 0.296 µM); in series [4] (setting [8]), 2.35 µg/mL (≈ 7.72 µM); in series [5] it was 18.5 µg/mL (≈ 60.8 µM); in series [6] it was 0.13 µg/mL (≈ 0.427 µM). Further, the selectivity ratio stood at 26.1 in series [2] and 18.1 in series [3]. In addition, the IC90 in series [5] was over 40 µg/mL.

For the compound `CN(C)c1ccc(-c2cn(CCCCCCCC(=O)NO)nn2)cc1`, the IC50 in series [1] amounted to 0.185 µg/mL (≈ 0.536 µM); in series [7] it was 15.9 nM; in series [4] (setting [8]), 0.97 µg/mL (≈ 2.81 µM); in series [5], 24 µg/mL (≈ 69.5 µM); in series [6] it was 0.175 µg/mL (≈ 0.507 µM). In addition, the selectivity ratio was 3.6 in series [2] and 3.8 in series [3]. In series [5], the IC90 is over 40 µg/mL.

For `O=C(CCCCCn1cc(-c2ccncc2)nn1)NO`, the IC50 in series [1] is 0.133 µg/mL (≈ 0.481 µM); in series [4] (vero) it was “Non-toxic”; in series [5] it was 17.8 µg/mL (≈ 64.5 µM); in series [6] it was 0.195 µg/mL (≈ 0.708 µM). Also, the selectivity ratio in series [2] is over 35.9; in series [3] it was over 24.4. In series [5], the IC90 was over 40 µg/mL.

For `C[C@@H]1[C@H](O)[C@@H](C)/C=C/C=C/C=C/C=C/C=C/C=C/C=C/[C@H](O[C@@H]2O[C@H](C)[C@@H](O)[C@H](N)[C@@H]2O)C[C@@H]2O[C@](O)(C[C@@H](O)C[C@@H](O)[C@H](O)CC[C@@H](O)C[C@@H](O)CC(=O)O[C@H]1C)C[C@H](O)[C@H]2C(=O)O` [AMPHOTERICIN B], in series [5], the IC90 came to 0.31 µg/mL (≈ 0.335 µM) and the IC50 is 0.14 µg/mL (≈ 0.152 µM).

As to `O=C(CCCCCCCn1cc(-c2ccccc2)nn1)NO`, the half-inhibitory concentration (IC50) in series [1] is 0.695 µg/mL (≈ 2.3 µM); in series [7], 363.6 nM; in series [4] (vero), “Non-toxic”; in series [5], 17.8 µg/mL (≈ 58.7 µM); in series [6] it was 0.645 µg/mL (≈ 2.13 µM). Further, the selectivity ratio in series [2] is over 6.8; in series [3] it was over 7.4. For the same compound, the IC90 in series [5] was over 40 µg/mL.

Regarding `CC(/C=C/C(=O)NO)=C\[C@@H](C)C(=O)c1ccc(N(C)C)cc1` [TRICHOSTATIN], the IC50 in series [1] is 0.0495 µg/mL (≈ 0.164 µM); in series [4] (setting [8]) it was 0.095 µg/mL (≈ 0.314 µM); in series [5], 1.37 µg/mL (≈ 4.53 µM); in series [6], 0.0412 µg/mL (≈ 0.136 µM). In series [5], this compound returned an IC90 of 20.5 µg/mL (≈ 67.8 µM).

For `O=C(CCCCCCn1cc(-c2cccc(-c3ccccc3)c2)nn1)NO`, the IC50 was 0.025 µg/mL (≈ 0.0686 µM) in series [1], “Non-toxic” in series [4] (vero), 20.5 µg/mL (≈ 56.2 µM) in series [5] and 0.025 µg/mL (≈ 0.0686 µM) in series [6]. Besides, the selectivity ratio in series [2] and in series [3] was over 190 throughout. Besides, the IC90 in series [5] was over 40 µg/mL.

With `C[C@@H]1CC[C@H]2[C@@H](C)C(=O)O[C@@H]3O[C@@]4(C)CC[C@@H]1[C@]32OO4` [ARTEMISININ], the IC50 turned out to be 0.006 µg/mL (≈ 0.0213 µM) in series [1] and 0.004 µg/mL (≈ 0.0142 µM) in series [6].

As to `O=C(CCCCCCCCn1cc(-c2ccccc2)nn1)NO`, the IC50 in series [1] worked out at 2.75 µg/mL (≈ 8.69 µM); in series [7], 55.4 nM; in series [4] (setting [8]) it was 3.35 µg/mL (≈ 10.6 µM); in series [5] it was 18.5 µg/mL (≈ 58.5 µM); in series [6], 2.65 µg/mL (≈ 8.38 µM). The results for the selectivity ratio in series [2] and in series [3] were 1.2 and 1.9, respectively. The concentration for an effect of 90% (IC90) in series [5] was over 40 µg/mL.

Take `O=C(CCCCCn1cc(-c2ccccc2-c2ccccc2)nn1)NO`: the IC50 in series [1] amounted to 2.6 µg/mL (≈ 7.42 µM); in series [4] (setting [8]) it was 2.7 µg/mL (≈ 7.7 µM); in series [5], 13 µg/mL (≈ 37.1 µM); in series [6], 2.1 µg/mL (≈ 5.99 µM). Further, the selectivity ratio is 1 in series [2] and 1.3 in series [3]. The compound further yielded an IC90 in series [5] of 38 µg/mL (≈ 108 µM).

Consider `O=C(CCCCCn1cc(-c2ccccc2)nn1)NO`, for which the IC50 came to 0.13 µg/mL (≈ 0.474 µM) in series [1], 3.95 µg/mL (≈ 14.4 µM) in series [4] (setting [8]), 17.5 µg/mL (≈ 63.8 µM) in series [5] and 0.088 µg/mL (≈ 0.321 µM) in series [6]. The selectivity ratio in series [2] is 30.4; in series [3] it was 44.9. Besides, in series [5], the IC90 is over 40 µg/mL.

As to `O=C(CCCCCCCn1cc(-c2cccnc2)nn1)NO`, the IC50 was 1.69 µg/mL (≈ 5.56 µM) in series [1]; 425.8 nM in series [7]; “Non-toxic” in series [4] (vero); 19.8 µg/mL (≈ 65.1 µM) in series [5]; 1.49 µg/mL (≈ 4.93 µM) in series [6]. The selectivity ratio was over 2.8 in series [2] and over 3.2 in series [3]. The same compound showed an IC90 in series [5] of over 40 µg/mL.

In the case of `O=C(CCCCCCC(=O)Nc1ccccc1)NO` [VORINOSTAT], the IC90 in series [5] came to 57.9 µg/mL (≈ 219 µM).

For the compound `CN(C)c1ccc(-c2cn(CCCCCC(=O)NO)nn2)cc1`, the half-inhibitory concentration (IC50) was 0.0385 µg/mL (≈ 0.121 µM) in series [1], 3.4 µg/mL (≈ 10.7 µM) in series [4] (setting [8]), 15.5 µg/mL (≈ 48.8 µM) in series [5] and 0.068 µg/mL (≈ 0.214 µM) in series [6]. The selectivity ratio in series [2] was determined as 88.3; in series [3] it was 50. In series [5], this compound returned an IC90 of over 40 µg/mL.

As for `Cc1cccc(-c2cn(CCCCCC(=O)NO)nn2)c1`, the concentration for half-maximal inhibition (IC50) in series [1] came out at 0.068 µg/mL (≈ 0.236 µM); in series [4] (setting [8]), 2.7 µg/mL (≈ 9.36 µM); in series [5], 17 µg/mL (≈ 59 µM); in series [6], 0.0795 µg/mL (≈ 0.276 µM). Besides, the selectivity ratio in series [2] was 39.7; in series [3], 34. The IC90 in series [5] is over 40 µg/mL.

For the compound `Cc1ccc(-c2cn(CCCCCC(=O)NO)nn2)cc1`, the concentration for half-maximal inhibition (IC50) is 0.14 µg/mL (≈ 0.486 µM) in series [1], 3.85 µg/mL (≈ 13.4 µM) in series [4] (setting [8]), 21.5 µg/mL (≈ 74.6 µM) in series [5] and 0.13 µg/mL (≈ 0.451 µM) in series [6]. In addition, the selectivity ratio turned out to be 27.5 in series [2] and 29.6 in series [3]. The concentration for an effect of 90% (IC90) in series [5] was over 40 µg/mL.

As to `COc1ccccc1-c1cn(CCCCCC(=O)NO)nn1`, the IC50 in series [1] was determined as 0.0975 µg/mL (≈ 0.32 µM); in series [4] (setting [8]) it was 2.3 µg/mL (≈ 7.56 µM); in series [5], 18.8 µg/mL (≈ 61.6 µM); in series [6], 0.15 µg/mL (≈ 0.493 µM). In addition, the selectivity ratio in series [2] was determined as 23.6; in series [3], 15.3. In addition, the IC90 in series [5] is over 40 µg/mL.

In the case of `O=C(CCCCCn1cc(-c2ccc(-c3ccncc3)cc2)nn1)NO`, the IC50 in series [1] is 0.0475 µg/mL (≈ 0.135 µM); in series [4] (vero) it was “Non-toxic”; in series [5] it was 28 µg/mL (≈ 79.7 µM); in series [6] it was 0.0455 µg/mL (≈ 0.129 µM). For the same compound, the figures for the selectivity ratio in series [2] and in series [3] were over 100 and over 105, respectively. The IC90 in series [5] was over 40 µg/mL.

As for `COc1cccc(OC)c1-c1cn(CCCCCC(=O)NO)nn1`, the IC50 in series [1] was 2.6 µg/mL (≈ 7.78 µM); in series [4] (vero) it was “Non-toxic”; in series [5], 40 µg/mL (≈ 120 µM); in series [6], 2 µg/mL (≈ 5.98 µM). The selectivity ratio is over 1.8 in series [2] and over 2.4 in series [3]. Further, the IC90 in series [5] is over 40 µg/mL.

`N=C(N)c1ccc(OCCCCCOc2ccc(C(=N)N)cc2)cc1` [PENTAMIDINE] displayed an IC90 in series [5] of 1.8 µg/mL (≈ 5.29 µM).

Usually IC50 stands for the concentration that gives 50% inhibition. Broadly, the IC90 is the concentration needed for an effect of 90%.
